Data as given in patent US9738634B2, “Heterocyclic amide compound and herbicide” (SYNGENTA PARTICIPATIONS AG, priority 2013, dated 2017).

What was measured:
Type in all cases: in vivo
barnyard grass [1] = assay: Test Example 1: weedkilling efficacy, preemergent weed treatment in the submerged state; A: barnyard grass
How it was run: (§1)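 Pots of alluvial soil were flooded to a 4 cm depth. Mixed weed seeds were sown and 2.5 leaf-stage rice seedlings transplanted. On sowing day, water-diluted emulsion was applied to the water surface (dose in g/ha). After 3 weeks at 25–30 °C, effects were rated.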

bulrush [2] = assay: Test Example 1: weedkilling efficacy, preemergent weed treatment in the submerged state; B: bulrush
How it was run: as §1

oval-leafed pondweed [3] = assay: Test Example 1: weedkilling efficacy, preemergent weed treatment in the submerged state; C: oval-leafed pondweed
How it was run: as §1

transplanted rice = assay: Test Example 1: preemergent weed treatment in the submerged state, effect on crop; a: transplanted rice
How it was run: as §1

barnyard grass [4] = assay: Test Example 2: weedkilling efficacy, growth period weed treatment in the submerged state; A: barnyard grass
How it was run: (§2)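 Weeds treated at the 1-2 leaf stage by application of diluted emulsion onto floodwater (4 cm depth, alluvial soil) at specified g/ha. Grown in greenhouse at 25 to 30° C; herbicidal effect rated three weeks after treatment.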

bulrush [5] = assay: Test Example 2: weedkilling efficacy, growth period weed treatment in the submerged state; B: bulrush
How it was run: as §2

oval-leafed pondweed [6] = assay: Test Example 2: weedkilling efficacy, growth period weed treatment in the submerged state; C: oval-leafed pondweed
How it was run: as §2

SMILES	A: barnyard grass, weed kill grade (barnyard grass [1]; treatment dosage 252 g/ha)	B: bulrush, weed kill grade (bulrush [2]; treatment dosage 252 g/ha)	C: oval-leafed pondweed, weed kill grade (oval-leafed pondweed [3]; treatment dosage 252 g/ha)	a: transplanted rice, effect on crop grade (transplanted rice; treatment dosage 252 g/ha)	A (barnyard grass) weedkilling efficacy grade (barnyard grass [4]; treatment dosage 252 g/ha)	B (bulrush) weedkilling efficacy grade (bulrush [5]; treatment dosage 252 g/ha)	C (oval-leafed pondweed) weedkilling efficacy grade (oval-leafed pondweed [6]; treatment dosage 252 g/ha)	A: barnyard grass, weed kill grade (barnyard grass [1]; treatment dosage 320 g/ha)	B: bulrush, weed kill grade (bulrush [2]; treatment dosage 320 g/ha)	C: oval-leafed pondweed, weed kill grade (oval-leafed pondweed [3]; treatment dosage 320 g/ha)	a: transplanted rice, effect on crop grade (transplanted rice; treatment dosage 320 g/ha)	A (barnyard grass) weedkilling efficacy grade (barnyard grass [4]; treatment dosage 320 g/ha)	B (bulrush) weedkilling efficacy grade (bulrush [5]; treatment dosage 320 g/ha)	C (oval-leafed pondweed) weedkilling efficacy grade (oval-leafed pondweed [6]; treatment dosage 320 g/ha)
CC(C)(C(=O)Nc1cc(Br)cnc1Cl)N1COCN(c2ccccc2)C1=O [A-3-07]	5 (weed kill ratio 90% or more, (practically complete withering))	5 (weed kill ratio 90% or more, (practically complete withering))	4 (weed kill ratio 70% or more, less than 90%)	0 (weed kill ratio 5% or less (practically no effect))	4 (weed kill ratio 70% or more, less than 90%)	5 (weed kill ratio 90% or more, (practically complete withering))	1 (weed kill ratio 5% or more, less than 20%)							
CC(C)(C(=O)Nc1cc(Cl)cnc1Br)N1COCN(c2ccccc2)C1=O [A-3-08]	5 (weed kill ratio 90% or more, (practically complete withering))	5 (weed kill ratio 90% or more, (practically complete withering))	4 (weed kill ratio 70% or more, less than 90%)	0 (weed kill ratio 5% or less (practically no effect))	2 (weed kill ratio 20% or more, less than 40%)	3 (weed kill ratio 40% or more, less than 70%)	2 (weed kill ratio 20% or more, less than 40%)							
CC(C)(C(=O)Nc1cncc(C(F)(F)F)c1)N1COCN(c2ccccc2)C1=O [A-3-10]	5 (weed kill ratio 90% or more, (practically complete withering))	5 (weed kill ratio 90% or more, (practically complete withering))	5 (weed kill ratio 90% or more, (practically complete withering))	1 (weed kill ratio 5% or more, less than 20%)	3 (weed kill ratio 40% or more, less than 70%)	5 (weed kill ratio 90% or more, (practically complete withering))	4 (weed kill ratio 70% or more, less than 90%)							
CC(C)(C(=O)Nc1ccnc(Cl)c1)N1COCN(c2ccccc2)C1=O [A-4-02]	5 (weed kill ratio 90% or more, (practically complete withering))	5 (weed kill ratio 90% or more, (practically complete withering))	5 (weed kill ratio 90% or more, (practically complete withering))	1 (weed kill ratio 5% or more, less than 20%)	2 (weed kill ratio 20% or more, less than 40%)	5 (weed kill ratio 90% or more, (practically complete withering))	4 (weed kill ratio 70% or more, less than 90%)							
CC(C)(C(=O)Nc1ccnc(Br)c1)N1COCN(c2ccccc2)C1=O [A-4-03]	5 (weed kill ratio 90% or more, (practically complete withering))	5 (weed kill ratio 90% or more, (practically complete withering))	5 (weed kill ratio 90% or more, (practically complete withering))	1 (weed kill ratio 5% or more, less than 20%)	2 (weed kill ratio 20% or more, less than 40%)	5 (weed kill ratio 90% or more, (practically complete withering))	4 (weed kill ratio 70% or more, less than 90%)							
CC(C)(C(=O)Nc1cc(F)nc(F)c1)N1COCN(c2ccccc2)C1=O [A-4-04]								5 (weed kill ratio 90% or more, (practically complete withering))	5 (weed kill ratio 90% or more, (practically complete withering))	5 (weed kill ratio 90% or more, (practically complete withering))	0 (weed kill ratio 5% or less (practically no effect))	3 (weed kill ratio 40% or more, less than 70%)	5 (weed kill ratio 90% or more, (practically complete withering))	4 (weed kill ratio 70% or more, less than 90%)
CC(C)(C(=O)Nc1ccnc(C(F)(F)F)c1)N1COCN(c2ccccc2)C1=O [A-4-06]	5 (weed kill ratio 90% or more, (practically complete withering))	5 (weed kill ratio 90% or more, (practically complete withering))	5 (weed kill ratio 90% or more, (practically complete withering))	0 (weed kill ratio 5% or less (practically no effect))	4 (weed kill ratio 70% or more, less than 90%)	5 (weed kill ratio 90% or more, (practically complete withering))	4 (weed kill ratio 70% or more, less than 90%)							
CC(C)(C(=O)Nc1cc(-c2ccsc2)ccn1)N1COCN(c2ccccc2)C1=O [A-5-01]								4 (weed kill ratio 70% or more, less than 90%)	5 (weed kill ratio 90% or more, (practically complete withering))	5 (weed kill ratio 90% or more, (practically complete withering))	0 (weed kill ratio 5% or less (practically no effect))	4 (weed kill ratio 70% or more, less than 90%)	4 (weed kill ratio 70% or more, less than 90%)	4 (weed kill ratio 70% or more, less than 90%)
CC(C)(C(=O)Nc1cc(Cl)cc(Cl)n1)N1COCN(c2c(F)cccc2F)C1=O [A-6-01]	5 (weed kill ratio 90% or more, (practically complete withering))	5 (weed kill ratio 90% or more, (practically complete withering))	5 (weed kill ratio 90% or more, (practically complete withering))	3 (weed kill ratio 40% or more, less than 70%)	5 (weed kill ratio 90% or more, (practically complete withering))	5 (weed kill ratio 90% or more, (practically complete withering))	5 (weed kill ratio 90% or more, (practically complete withering))							
CC(C)(C(=O)Nc1cc(Cl)cc(Br)n1)N1COCN(c2c(F)cccc2F)C1=O [A-6-02]	5 (weed kill ratio 90% or more, (practically complete withering))	5 (weed kill ratio 90% or more, (practically complete withering))	5 (weed kill ratio 90% or more, (practically complete withering))	0 (weed kill ratio 5% or less (practically no effect))	5 (weed kill ratio 90% or more, (practically complete withering))	5 (weed kill ratio 90% or more, (practically complete withering))	5 (weed kill ratio 90% or more, (practically complete withering))							
CC(C)(C(=O)Nc1cc(C(F)(F)F)ccn1)N1COCN(c2ccc(Cl)c(Cl)c2)C1=O [A-6-03]								3 (weed kill ratio 40% or more, less than 70%)	5 (weed kill ratio 90% or more, (practically complete withering))	0 (weed kill ratio 5% or less (practically no effect))	0 (weed kill ratio 5% or less (practically no effect))	0 (weed kill ratio 5% or less (practically no effect))	2 (weed kill ratio 20% or more, less than 40%)	0 (weed kill ratio 5% or less (practically no effect))
Cc1ccc(N2COCN(C(C)(C)C(=O)Nc3cc(C(F)(F)F)ccn3)C2=O)cc1Cl [A-6-04]								4 (weed kill ratio 70% or more, less than 90%)	4 (weed kill ratio 70% or more, less than 90%)	2 (weed kill ratio 20% or more, less than 40%)	0 (weed kill ratio 5% or less (practically no effect))	1 (weed kill ratio 5% or more, less than 20%)	2 (weed kill ratio 20% or more, less than 40%)	0 (weed kill ratio 5% or less (practically no effect))
CC(C)(C(=O)Nc1cc(Cl)cc(Cl)n1)N1COCN(c2ccccc2Cl)C1=O [A-6-06]	5 (weed kill ratio 90% or more, (practically complete withering))	5 (weed kill ratio 90% or more, (practically complete withering))	5 (weed kill ratio 90% or more, (practically complete withering))	2 (weed kill ratio 20% or more, less than 40%)	5 (weed kill ratio 90% or more, (practically complete withering))	5 (weed kill ratio 90% or more, (practically complete withering))	5 (weed kill ratio 90% or more, (practically complete withering))							
